From patent US9757415B2, “Composition comprising solanum glaucophyllum for preventing and/or treating hypocalcaemia and for stabilizing blood calcium levels” (HERBONIS AG, priority 2009, dated 2017)

Legend:
in vivo = settings: female, brown, Fleckvieh and Holstein, cow, serum, po, 500 ng
Experimental: Twenty-five cows of the races brown, Fleckvieh and Holstein of a weight of approximately 500-600 kg weight and including lactating and non-lactating subjects were allocated to 5 treatment groups as detailed in Table 6 blow. The animals were given a single dose of the test preparation orally per bolus. Blood was taken at time 0 (before application) and at days 1, 2, 3, 4, 5, 7, 9 and 11 following application. From the blood, serum was prepared and calcium (total), phosphate and 1,25-(OH)2 vitamin D3 was analyzed according to established clinico-chemical methods.
Treatment: all test preparations were applied to the animal as one single bolus in a gelatine capsule (length 7 cm, diameter 2.2 cm and volume 24 mL, Capsula GmbH, Ratingen, Germany) with the aid of a usual bolus applicator. The volume that was not filled with tablets was filled up with pectin as inert excipient. The control group only received pectin.
The boluses contained, in accordance with the treatment group, instant release tablets as described in Example 3 (groups 2 and 4) and retard release tablets as prepared in Example 4 (groups 1 and 4).

cows = assay: In vivo experiment, single oral bolus in cows: serum calcium and phosphate
From the text: The control group only received pectin.

[1] = day 0 (before application), n = 5, single oral bolus
[2] = day 2, n = 5, single oral bolus
[3] = day 3, n = 5, single oral bolus
[4] = day 4, n = 5, single oral bolus
[5] = day 5, n = 5, single oral bolus
[6] = day 7, n = 5, single oral bolus
[7] = day 9, n = 5, single oral bolus
[8] = day 11, n = 5, single oral bolus

C=C1/C(=C\C=C2/CCC[C@]3(C)[C@@H]([C@H](C)CCCC(C)(C)O)CC[C@@H]23)C[C@@H](O)C[C@@H]1O [Group 3, 1,25-dihydroxyvitamin D3]
concentration at 0 day (in vivo): 0.02 ng/mL
concentration at 1 day (in vivo): 0.243 ng/mL
concentration at 2 day (in vivo): 0.15 ng/mL
concentration at 3 day (in vivo): 0.056 ng/mL
concentration at 4 day (in vivo): 0.04 ng/mL
concentration at 5 day (in vivo): 0.046 ng/mL
concentration at 7 day (in vivo): 0.03 ng/mL
concentration at 9 day (in vivo): 0.023 ng/mL
concentration at 11 day (in vivo): 0.025 ng/mL
Serum calcium (mean ± standard deviation) (cows; [1]): 2.40 ± 0.2 ^ mmol/L
Serum phosphate (mean ± standard deviation) (cows; [1]): 2.30 ± 0.07 mmol/L
Serum calcium (mean ± standard deviation) (cows; day 1, n = 5, single oral bolus): 2.64 ± 0.05 E mmol/L
Serum calcium (mean ± standard deviation) (cows; [2]): 2.67 ± 0.09 Ed mmol/L
Serum phosphate (mean ± standard deviation) (cows; [2]): 2.81 ± 0.25 ED mmol/L
Serum calcium (mean ± standard deviation) (cows; [3]): 2.72 ± 0.09 E mmol/L
Serum phosphate (mean ± standard deviation) (cows; [3]): 3.05 ± 0.19 Ed mmol/L
Serum calcium (mean ± standard deviation) (cows; [4]): 2.72 ± 0.06 E mmol/L
Serum phosphate (mean ± standard deviation) (cows; [4]): 3.24 ± 0.34 E mmol/L
Serum calcium (mean ± standard deviation) (cows; [5]): 2.61 ± 0.02 E mmol/L
Serum phosphate (mean ± standard deviation) (cows; [5]): 2.60 ± 0.32 E mmol/L
Serum calcium (mean ± standard deviation) (cows; [6]): 2.57 ± 0.06 e^ mmol/L
Serum phosphate (mean ± standard deviation) (cows; [6]): 2.43 ± 0.23 e mmol/L
Serum calcium (mean ± standard deviation) (cows; [7]): 2.56 ± 0.09 ^ mmol/L
Serum phosphate (mean ± standard deviation) (cows; [7]): 2.05 ± 0.44 mmol/L
Serum calcium (mean ± standard deviation) (cows; [8]): 2.45 ± 0.02 ^ mmol/L
Serum phosphate (mean ± standard deviation) (cows; [8]): 2.10 ± 0.16 mmol/L
